Reference: patent US5679671A, “Amino acid derivative” (Eisai Co., Ltd., priority 1993, dated 1997)

Columns and labels:
ACE = target: T1, ACE (Rattus norvegicus, UniProt P47820); experiment: ACE inhibition activity (Experiment D-1); format: biochemical; settings: rat lung membrane fraction, pH 8.3
T1 construct: membrane fraction prepared from rat lung; from tissue; host or cells: rat lung, membrane fraction (method of Wu-Wong et al.)
T1 sequence (P47820 36-1313): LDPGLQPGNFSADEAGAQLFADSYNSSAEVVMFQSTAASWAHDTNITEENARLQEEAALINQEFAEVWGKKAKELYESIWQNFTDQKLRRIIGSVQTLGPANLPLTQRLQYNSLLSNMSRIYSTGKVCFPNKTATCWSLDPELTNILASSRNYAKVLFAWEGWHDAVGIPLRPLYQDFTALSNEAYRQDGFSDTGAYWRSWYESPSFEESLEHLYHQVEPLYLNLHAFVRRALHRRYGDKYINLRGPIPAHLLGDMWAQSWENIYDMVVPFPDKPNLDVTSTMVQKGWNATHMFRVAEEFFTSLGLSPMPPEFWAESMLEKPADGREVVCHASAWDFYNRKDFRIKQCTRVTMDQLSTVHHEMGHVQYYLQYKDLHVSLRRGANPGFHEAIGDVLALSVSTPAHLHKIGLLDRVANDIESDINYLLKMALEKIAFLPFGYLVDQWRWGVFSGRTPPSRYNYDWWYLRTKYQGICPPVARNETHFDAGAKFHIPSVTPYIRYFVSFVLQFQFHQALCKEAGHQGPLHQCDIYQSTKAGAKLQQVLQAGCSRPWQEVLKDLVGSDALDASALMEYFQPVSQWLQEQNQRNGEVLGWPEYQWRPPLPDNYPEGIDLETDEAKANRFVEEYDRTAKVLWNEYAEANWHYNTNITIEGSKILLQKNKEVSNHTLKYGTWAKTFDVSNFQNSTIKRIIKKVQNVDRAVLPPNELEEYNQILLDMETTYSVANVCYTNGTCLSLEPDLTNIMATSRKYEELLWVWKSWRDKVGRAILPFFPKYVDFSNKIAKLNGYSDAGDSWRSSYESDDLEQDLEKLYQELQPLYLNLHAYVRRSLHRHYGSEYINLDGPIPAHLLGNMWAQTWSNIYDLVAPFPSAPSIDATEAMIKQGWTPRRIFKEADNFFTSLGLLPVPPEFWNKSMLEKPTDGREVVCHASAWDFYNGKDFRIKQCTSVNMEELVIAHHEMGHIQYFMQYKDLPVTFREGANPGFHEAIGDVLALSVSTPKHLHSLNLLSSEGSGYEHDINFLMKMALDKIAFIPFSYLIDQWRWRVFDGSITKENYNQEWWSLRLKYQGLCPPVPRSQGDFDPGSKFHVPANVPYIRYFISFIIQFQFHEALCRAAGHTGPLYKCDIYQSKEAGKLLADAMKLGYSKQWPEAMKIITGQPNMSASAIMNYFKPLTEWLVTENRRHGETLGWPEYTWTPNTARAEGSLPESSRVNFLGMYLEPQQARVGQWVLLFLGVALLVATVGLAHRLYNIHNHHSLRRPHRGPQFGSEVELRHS
Procedure: As a source of the enzyme ACE, a membrane fraction prepared from rat lung in accordance with the method of Wu-Wong et al. (Characterization of Endthelin Converting Enzyme in Rat Lung., Junshyum R. Wu-Wong, Gerald, P. Budzik, Edward M. Devine and Terry J. Opgenorth, Biochem. Biophys. Res. Commun., 1990, 171, 1291-1296.) was used. The ACE activity was determined with the use of a modification (modified to a borate buffer, pH 8.3) of the method of Cushman and Cheung (Spectrophotometric Assay and Properties of the Angiotensin-Converting Enzyme of Rabbit Lung., Cushman D. W. and Cheung H. S., 1971, 20, 1637-1648.). Now the procedure will be briefly described.
In the presence of ACE, the hippurate liberated from hippuryl-histidine-leucine (Hippuryl-His-Leu (Peptide Institute Inc., Japan)) was extracted with ethyl acetate and then the absorbance was measured at a wavelength of 228 nm.
(§1) To determine the NEP inhibition activity and the ACE inhibition activity, the inhibitor was added to the assay systems of both enzyme activities as described above in such a manner as to give the final concentrations of 1, 3, 10, 30, 100, 300 and 1000 nM and inhibition curves were prepared. Then the concentration at which 50% inhibition was achieved was taken as IC50.

NEP = target: T2, NEP (Rattus norvegicus, UniProt P07861); experiment: NEP inhibition activity (Experiment D-1); format: biochemical; set-up: membrane fraction prepared from rat renal cortex; from tissue; host or cells: rat renal cortex, membrane fraction (method of Booth and Kenny); settings: rat renal cortex membrane fraction
T2 sequence (P07861 1-750): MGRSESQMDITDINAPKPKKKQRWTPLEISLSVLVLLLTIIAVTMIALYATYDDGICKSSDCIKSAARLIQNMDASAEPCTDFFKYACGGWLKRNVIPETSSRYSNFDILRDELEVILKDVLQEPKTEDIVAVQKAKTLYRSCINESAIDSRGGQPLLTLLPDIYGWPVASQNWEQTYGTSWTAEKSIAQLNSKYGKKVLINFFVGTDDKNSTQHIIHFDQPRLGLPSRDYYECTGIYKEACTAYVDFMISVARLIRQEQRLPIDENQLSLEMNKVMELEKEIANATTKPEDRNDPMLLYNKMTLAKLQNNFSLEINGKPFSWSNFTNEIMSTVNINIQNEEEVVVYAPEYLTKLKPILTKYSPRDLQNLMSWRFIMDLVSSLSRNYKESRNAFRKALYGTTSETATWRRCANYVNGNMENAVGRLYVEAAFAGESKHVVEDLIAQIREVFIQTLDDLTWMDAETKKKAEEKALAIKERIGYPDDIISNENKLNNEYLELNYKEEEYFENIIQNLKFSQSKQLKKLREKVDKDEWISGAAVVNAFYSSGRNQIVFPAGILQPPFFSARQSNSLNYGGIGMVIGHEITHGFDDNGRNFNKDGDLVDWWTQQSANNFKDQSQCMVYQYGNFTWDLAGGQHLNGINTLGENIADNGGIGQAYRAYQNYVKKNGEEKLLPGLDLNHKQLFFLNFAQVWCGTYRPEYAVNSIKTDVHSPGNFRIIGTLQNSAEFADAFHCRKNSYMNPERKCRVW
Procedure: As a source of the enzyme NEP, a membrane fraction prepared from rat renal cortex in accordance with the method of Booth and Kenny (A Rapid Method for the Purification of Microvilli from Rabbit Kidney., Andrew G. Booth and A. John Kenny, Biochem. j., 1974, 142, 575-581.) was employed. The NEP activity was determined in accordance with the method of Orlowsky and Wilk (Purification and Specificity of a Membrane-Bound Metalloendpeptidase from Bovine Pituitaries., Marian Orlowsky and Shrwin Wilk, Biochemistry, 1981, 20, 4942-4950.). Now the procedure will be briefly described.
As a substrate, benzoyl-glycine-arginine-arginine-2-naphthylamide benzoyl-Gly-Arg-Arg-2-naphthylamide (Nova Biochem, Switzerland)) was used. In the presence of an NEP enzyme preparation and excessive leucine aminopeptidase (sigma chemical Co., U.S.A.), the liberated naphthylamine was made to undergo color development with first garnet (Sigma chemical Co., U.S.A.), followed by the measurement of the absorbance at a wavelength of 540 nm.
as §1

SHR [1] = experiment: Hypotensive effect on SHR, i.v. (Experiment D-2); format: in vivo, Spontaneously hypertensive rats
Procedure: (§2) Spontaneously hypertensive rats (SHR) aged 15 to 20 weeks were anesthetized by intraperitoneally administering thiopental sodium (50 mg/kg). The depth of anesthesia was maintained by optionally effecting supplemental anesthesia (5 mg/kg, i.v.). Catheters were inserted into the left common carotid artery and the vein respectively for the measurement of blood pressure and for the administration of a medicament. The cardiac rate was counted by using blood pressure as a trigger.
When the blood pressure became stable after the completion of the operation, the comparative compound or the compound of Example 9 was intravenously administered in doses of 0.1, 0.3 and 1.0 mg/kg and changes in blood pressure and cardiac rate were measured. Following the administration, the measurement was effected for 10 minutes in the cases of 0.1 and 0.3 mg/kg or for 30 minutes in the case of 1.0 mg/kg.

SHR [2] = experiment: Hypotensive effect on SHR, i.v. (Experiment C-5); format: in vivo, rat (SHR)
Procedure: as §2, with “SHRs” for “Spontaneously hypertensive rats (SHR)”
When the blood pressure became stable after the completion of the operation, the comparative compound was intravenously administered in 0.1, 0.3 and 1.0 mg/kg and changes in blood pressure and cardiac rate were measured. Following the administration, the measurement was effected for 10 minutes in the cases of 0.1 and 0.3 mg/kg or for 30 minutes in the case of 1.0 mg/kg. The invention compound was intravenously administered in 0.03, 0.1 and 0.3 mg/kg and the measurement was effected for 10 minutes after the administration in the cases of 0.03 and 0.1 mg/kg or for 30 minutes after the administration in the case of 0.3 mg/kg.

SHR [3] = experiment: Hypotensive effect on SHR through intravenous administration (separate experiment); format: in vivo; settings: Rattus norvegicus, read-out: dose to decrease the blood pressure by 10%
From the text: In addition to the above-mentioned Pharmacological Experiment Examples, an experiment was separately effected with the use of SHR for examining hypotensive effects through intravenous administration. As the result, in the comparison of the conventionally known double inhibitors (1) [S-(R*,R*)]-2,3,4,5-tetrahydro-3-[(2-mercapto-[…])amino]-2-oxo-1H-benzazepine-1-acetic acid and (2) [S-(R*,R*)]-2,3,4,5-tetrahydro-3-[(2-mercapto-1-oxo-4-methylpentyl)amino]- 2-oxo-1H-benzazepine-1-acetic acid with the compounds of the present invention, Example C-8 and Example C-10, the inhibitors (1) and (2) should be administered each in a dose of 1.0 mg/kg to decrease the blood pressure by 10%, whereas the administration of 0.03 to 0.1 mg/kg of the compound of Example C-8 and the administration of 0.1 to 0.3 mg/kg of the compound of Example C-10 each achieved the same effect.

[4] = within 30 minutes after i.v. administration

IC50 (ACE) [nM] | IC50 (NEP) [nM] | Compound | cardiac rate (SHR [1]; SHR, i.v.) | ED (10% decrease in blood pressure) (SHR [3]) [mg/kg] | further results
17 | 33 | CS(=O)(=O)Nc1ccc2c(c1)[C@H]1CCC[C@@H](C(=O)O)N1C(=O)[C@@H](NC(=O)[C@@H](S)Cc1ccccc1)C2 [Example D-5, [4S-[4α,7α(R*),12bβ]]-11-methylsulfonylamino7-[[(S)-2-mercapto-3-phenyl-1-oxopropyl)amino-6-oxo-1,2,3,4,6,7,8,12b-octahydropyrido-[2,1-a][2]benzazepine-4-carboxylic acid] | – | – | –
11 | 14 | COc1ccc(CC(S)C(=O)N[C@H]2Cc3ccccc3[C@H]3SC[C@H](C(=O)O)N3C2=O)cc1 (stereo partly drawn) [Comp. cpd.*^1] | – | – | –
12 | 38 | COc1ccc(C[C@H](S)C(=O)N[C@H]2Cc3ccc(NS(C)(=O)=O)cc3[C@H]3CCC[C@@H](C(=O)O)N3C2=O)cc1 [Example D-6, [4S-[4α,7α(R*),12bβ]]-11-methylsulfonylamino-7-[[(S)-2-mercapto-3-(4-methoxyphenyl)-1-oxopropyl]amino-6-oxo-1,2,3,4,6,7,8,12b-octahydropyrido-[2,1-a][2]benzazepine-4-carboxylic acid] | tended to gradually decrease | – | decrease in blood pressure / hypotensive effect (SHR [1]; 1.0 mg/kg i.v.): 25%; hypotensive effect on SHR relative to the comparative compound (SHR [1]; SHR, i.v.): about three times that of the comparative compound
– | – | O=C(N[C@H]1Cc2ccccc2[C@H]2CCC[C@@H](C(=O)O)N2C1=O)[C@@H](S)Cc1ccccc1 [comparative compound, reference compound] | tended to gradually decrease | – | cardiac rate (SHR [2]; SHR, i.v.): tended to gradually decrease; return of blood pressure (SHR [2]; [4]): did not return within 30 minutes; return of blood pressure (SHR [1]; [4]): did not return within 30 minutes
– | – | CC(C)C[C@H](S)C(=O)N[C@H]1CCc2ccccc2N(CC(=O)O)C1=O [inhibitor (2), [S-(R*,R*)]-2,3,4,5-tetrahydro-3-[(2-mercapto-1-oxo-4-methylpentyl)amino]-2-oxo-1H-benzazepine-1-acetic acid] | – | 1 | –
– | – | O=C(O)CN1C(=O)[C@@H](NC(=O)[C@@H](S)Cc2ccccc2)CCc2ccccc21 [inhibitor (1)] | – | 1 | –
